Usually IC50 stands for the concentration needed to halve the response being measured.

One assay relates to MDA-MB-231 cells. As to the kind of experiment: Cell proliferation assay (CellTiter-Glo), MDA-MB-231. It is filed as cell-based. The settings on record: Homo sapiens, MDA-MB-231, 72 h, 72 h treatment, Celltiter-Glo luminescence. In outline: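 Compounds tested over ten concentrations ([…]) for 72 h on EVSA-T cells in MEM/10% FBS and MDA-MB-231 cells in RPMI-1640/10% FBS, seeded at 10000/well. Luminescent CellTiter-Glo readout; IC50 fitted after normalisation to controls.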
On the technique in general: In ATP-based viability assays light output follows the ATP content of the culture.

The test system of a further assay is EVSA-T cells. Description: Cell proliferation assay (CellTiter-Glo), EVSA-T. It counts as cell-based. The following applies: Homo sapiens, EVSA-T, 72 h, 72 h treatment, Celltiter-Glo luminescence. The method, then:
Example 238: Cell Proliferation Assay
MDA-MB-231 and EVSA-T cells (10000 cells/well) were plated onto 96-well plates (Corning, Cat #3917) in 95 μL of medium (RPMI-1640 containing 10% FBS and MEM containing 10% FBS, respectively). Compounds with various concentrations ([…]) were added to the wells. After treatment for 72 h, 30 μL of Celltiter-Glo reagent (Promega, Cat #G7573) was added and incubated at room temperature for 15 min, then the luminescent signal was determined using a microplate reader (Biotek, SynergyH1). The inhibitor dose-response curves were analyzed using normalized IC50 regression curve fitting with control based normalization.

Structures are written as SMILES. Where only a bound is given, the exact number is not on record here.

Consider `COC(=O)N1CCN(CC2CN[C@H](C)CN2CC(=O)N2CC(C)(C)c3c2cc(Cc2ccc(F)cc2)c2ncnn32)[C@H](C)C1` (stereo in doubt) [Compound 223, methyl (R)-4-(((2S,5R)-1-(2-(4-(4-fluorobenzyl)-8,8-dimethyl-7,8-dihydro-6H-pyrrolo[2,3-e][1,2,4]triazolo[1,5-a]pyridin-6-yl)-2-oxoethyl)-5-methylpiperazin-2-yl)methyl)-3-methylpiperazine-1-carboxylate], for which the 50% inhibitory concentration (IC50) with MDA-MB-231 cells was 77 nM; in the assay with EVSA-T cells, 3 nM.

Take `C[C@@H]1CN(CC(=O)N2CC(C)(C)c3c2cc(Cc2ccc(F)cc2)c2nn(CC(C)(C)O)c(=O)n32)[C@@H](CN2CC3CC(C2)O3)CN1` [Compound 286, 6-(2-((2R,5R)-2-((6-oxa-3-azabicyclo[3.1.1]heptan-3-yl)methyl)-5-methylpiperazin-1-yl)acetyl)-4-(4-fluorobenzyl)-2-(2-hydroxy-2-methylpropyl)-8,8-dimethyl-2,6,7,8-tetrahydro-1H-pyrrolo[2,3-e][1,2,4]triazolo[4,3-a]pyridin-1-one]: in the assay on MDA-MB-231 cells, the half-inhibitory concentration (IC50) is 270 nM.

As to `C[C@@H]1CN(CC(=O)N2CC(C)(C)c3c2cc(Cc2ccc(F)cc2)c2nn(CC(C)(C)O)c(=O)n32)[C@@H](CN2CC3CCC2CO3)CN1` (stereo partly drawn) [Compound 287, 6-(2-((2R,5R)-2-((2-oxa-5-azabicyclo[2.2.2]octan-5-yl)methyl)-5-methylpiperazin-1-yl)acetyl)-4-(4-fluorobenzyl)-2-(2-hydroxy-2-methylpropyl)-8,8-dimethyl-2,6,7,8-tetrahydro-1H-pyrrolo[2,3-e][1,2,4]triazolo[4,3-a]pyridin-1-one], in the assay on MDA-MB-231 cells, the IC50 came to 480 nM.

Take `C[C@@H]1CN(CC(=O)N2CC(C)(C)c3c2cc(Cc2ccc(F)cc2)c2nn(CC(C)(C)O)c(=O)n32)[C@@H](CN2CC(F)(F)C[C@H]2C)CN1` [Compound 288, 6-(2-((2R,5R)-2-(((R)-4,4-difluoro-2-methylpyrrolidin-1-yl)methyl)-5-methylpiperazin-1-yl)acetyl)-4-(4-fluorobenzyl)-2-(2-hydroxy-2-methylpropyl)-8,8-dimethyl-2,6,7,8-tetrahydro-1H-pyrrolo[2,3-e][1,2,4]triazolo[4,3-a]pyridin-1-one]: the concentration for half-maximal inhibition (IC50) in the assay with MDA-MB-231 cells amounted to 29 nM.

On to `C[C@@H]1CN(CC(=O)N2CC(C)(C)c3c2cc(Cc2ccc(F)cc2)c2nn(CC(C)(C)O)c(=O)n32)[C@@H](CN2C3COCC2C3)CN1` [Compound 289, 6-(2-((2R,5R)-2-((3-oxa-6-azabicyclo[3.1.1]heptan-6-yl)methyl)-5-methylpiperazin-1-yl)acetyl)-4-(4-fluorobenzyl)-2-(2-hydroxy-2-methylpropyl)-8,8-dimethyl-2,6,7,8-tetrahydro-1H-pyrrolo[2,3-e][1,2,4]triazolo[4,3-a]pyridin-1-one], for which the half-maximal inhibitory concentration (IC50) in the assay with MDA-MB-231 cells is 1700 nM.

In the case of `CCc1ncc2c(Cc3ccc(F)cc3)cc3c(n12)C(C)(C)CN3C(=O)CN1C[C@@H](C)NC[C@@H]1CN1CCOC[C@H]1C` [Example 4, 1-(1-ethyl-4-(4-fluorobenzyl)-8,8-dimethyl-7,8-dihydro-6H-imidazo[1,5-a]pyrrolo[2,3-e]pyridin-6-yl)-2-((2R,5R)-5-methyl-2-(((R)-3-methylmorpholino)methyl)piperazin-1-yl)ethan-1-one], the IC50 in the assay with MDA-MB-231 cells came to 97 nM.

`CC(C)c1ncc2c(Cc3ccc(F)cc3)cc3c(n12)C(C)(C)CN3C(=O)CN1C[C@@H](C)NC[C@@H]1CN1CCOC[C@H]1C` [Example 5, 1-(4-(4-fluorobenzyl)-1-isopropyl-8,8-dimethyl-7,8-dihydro-6H-imidazo[1,5-a]pyrrolo[2,3-e]pyridin-6-yl)-2-((2R,5R)-5-methyl-2-(((R)-3-methylmorpholino)methyl)piperazin-1-yl)ethan-1-one]: the IC50 in the assay with MDA-MB-231 cells came out at 160 nM.

For the molecule `C[C@@H]1CN(CC(=O)N2CC(C)(C)c3c2cc(Cc2ccc(F)cc2)c2cnc(C4CCC4)n32)[C@@H](CN2CCOC[C@H]2C)CN1` [Example 6, 1-(1-cyclobutyl-4-(4-fluorobenzyl)-8,8-dimethyl-7,8-dihydro-6H-imidazo[1,5-a]pyrrolo[2,3-e]pyridin-6-yl)-2-((2R,5R)-5-methyl-2-(((R)-3-methylmorpholino)methyl)piperazin-1-yl)ethan-1-one], the IC50 in the assay with MDA-MB-231 cells worked out at 50 nM.

Take `C[C@@H]1CN(CC(=O)N2CC(C)(C)c3c2cc(Cc2ccc(F)cc2)c2cnc(C4CCOCC4)n32)[C@@H](CN2CCOC[C@H]2C)CN1` [Example 7, 1-(4-(4-fluorobenzyl)-8,8-dimethyl-1-(tetrahydro-2H-pyran-4-yl)-7,8-dihydro-6H-imidazo[1,5-a]pyrrolo[2,3-e]pyridin-6-yl)-2-((2R,5R)-5-methyl-2-(((R)-3-methylmorpholino)methyl)piperazin-1-yl)ethan-1-one]: the 50% inhibitory concentration (IC50) in the assay on MDA-MB-231 cells came to 140 nM.

In the case of `C[C@@H]1CN(CC(=O)N2CC(C)(C)c3c2cc(Cc2ccc(F)cc2)c2cnc(-c4ccc(F)cc4)n32)[C@@H](CN2CCOC[C@H]2C)CN1` [Example 8, 1-(4-(4-fluorobenzyl)-1-(4-fluorophenyl)-8,8-dimethyl-7,8-di hydro-6H-imidazo[1,5-a]pyrrolo[2,3-e]pyridin-6-yl)-2-((2R,5R)-5-methyl-2-(((R)-3-methylmorpholino)methyl)piperazin-1-yl)ethan-1-one], the IC50 with MDA-MB-231 cells was determined as 36 nM.

In the case of `C[C@@H]1CN(CC(=O)N2CC(C)(C)c3c2cc(Cc2ccc(F)cc2)c2nc(NS(C)(=O)=O)nn32)[C@@H](CN2CCOC[C@H]2C)CN1` [Example 15, N-(4-(4-fluorobenzyl)-8,8-dimethyl-6-(2-((2R,5R)-5-methyl-2-(((R)-3-methylmorpholino)methyl)piperazin-1-yl)acetyl)-7,8-dihydro-6H-pyrrolo[2,3-e][1,2,4]triazolo[1,5-a]pyridin-2-yl)methanesulfonamide], in the assay with MDA-MB-231 cells, the IC50 was > 10000 nM.

As to `C[C@@H]1CN(CC(=O)N2CC(C)(C)c3c2cc(Cc2ccc(F)cc2)c2nc(N(S(C)(=O)=O)S(C)(=O)=O)nn32)[C@@H](CN2CCOC[C@H]2C)CN1` [Example 16, N-(4-(4-fluorobenzyl)-8,8-dimethyl-6-(2-((2R,5R)-5-methyl-2-(((R)-3-methylmorpholino)methyl)piperazin-1-yl)acetyl)-7,8-dihydro-6H-pyrrolo[2,3-e][1,2,4]triazolo[1,5-a]pyridin-2-yl)-N-(methylsulfonyl)methanesulfonamide], in the assay on MDA-MB-231 cells, the 50% inhibitory concentration (IC50) is 6260 nM.

Take `C[C@@H]1CN(CC(=O)N2CC(C)(C)c3c2cc(Cc2ccc(F)cc2)n2c(C(F)(F)F)nnc32)[C@@H](CN2CCOC[C@H]2C)CN1` [Example 22, 1-(5-(4-fluorobenzyl)-9,9-dimethyl-3-(trifluoromethyl)-8,9-dihydro-7H-pyrrolo[3,2-c][1,2,4]triazolo[4,3-a]pyridin-7-yl)-2-((2R,5R)-5-methyl-2-(((R)-3-methylmorpholino)methyl)piperazin-1-yl)ethan-1-one]: the IC50 in the assay with MDA-MB-231 cells was determined as 3710 nM.

With `C[C@@H]1CN(CC(=O)N2CC(C)(C)c3c2cc(Cc2ccc(F)cc2)n2cnnc32)[C@@H](CN2CCOC[C@H]2C)CN1` [Example 23, 1-(5-(4-fluorobenzyl)-9,9-dimethyl-8,9-dihydro-7H-pyrrolo[3,2-c][1,2,4]triazolo[4,3-a]pyridin-7-yl)-2-((2R,5R)-5-methyl-2-(((R)-3-methylmorpholino)methyl)piperazin-1-yl)ethan-1-one], the half-inhibitory concentration (IC50) in the assay with MDA-MB-231 cells worked out at 320 nM.

With `C[C@@H]1CN(CC(=O)N2CC(C)(C)c3c2cc(Cc2ccc(F)cc2)n2ccnc32)[C@@H](CN2CCOC[C@H]2C)CN1` [Example 24, 1-(5-(4-fluorobenzyl)-9,9-dimethyl-8,9-dihydro-7H-imidazo[1,2-a]pyrrolo[3,2-c]pyridin-7-yl)-2-((2R,5R)-5-methyl-2-(((R)-3-methylmorpholino)methyl)piperazin-1-yl)ethan-1-one], the 50% inhibitory concentration (IC50) with MDA-MB-231 cells was 240 nM.

As for `C[C@@H]1CN(CC(=O)N2CC(C)(C)c3c2cc(Cc2ccc(F)cc2)c2nccnc32)[C@@H](CN2CCOC[C@H]2C)CN1` [Example 26, 1-(5-(4-fluorobenzyl)-9,9-dimethyl-8,9-dihydro-7H-pyrrolo[3,2-f]quinoxalin-7-yl)-2-((2R,5R)-5-methyl-2-(((R)-3-methylmorpholino)methyl)piperazin-1-yl)ethan-1-one], the concentration for half-maximal inhibition (IC50) with MDA-MB-231 cells is 180 nM.

As for `C[C@@H]1CN(CC(=O)N2CC(C)(C)c3c2cc(Cc2ccc(F)cc2)c2ncsc32)[C@@H](CN2CCOC[C@H]2C)CN1` [Example 27, 1-(4-(4-fluorobenzyl)-8,8-dimethyl-7,8-dihydro-6H-thiazolo[5,4-e]indol-6-yl)-2-((2R,5R)-5-methyl-2-(((R)-3-methylmorpholino)methyl)piperazin-1-yl)ethan-1-one], in the assay with MDA-MB-231 cells, the IC50 was determined as 260 nM.

With `C[C@@H]1CN(CC(=O)N2CC(C)(C)c3c2cc(Cc2ccc(F)cc2)c2scnc32)[C@@H](CN2CCOC[C@H]2C)CN1` [Example 28, 1-(4-(4-fluorobenzyl)-8,8-dimethyl-7,8-dihydro-6H-thiazolo[4,5-e]indol-6-yl)-2-((2R,5R)-5-methyl-2-(((R)-3-methylmorpholino)methyl)piperazin-1-yl)ethan-1-one], in the assay on MDA-MB-231 cells, the 50% inhibitory concentration (IC50) was 330 nM.

As to `C[C@@H]1CN(CC(=O)N2CC(C)(C)c3c2cc(Cc2ccc(F)cc2)c2nc(=O)n(C)n32)[C@@H](CN2CCOC[C@H]2C)CN1` [compound 127, 4-(4-fluorobenzyl)-1,8,8-trimethyl-6-(2-((2R,5R)-5-methyl-2-(((R)-3-methylmorpholino)methyl)piperazin-1-yl)acetyl)-7,8-dihydro-1H-pyrrolo[2,3-e][1,2,4]triazolo[1,5-a]pyridin-2(6H)-one], the IC50 in the assay on MDA-MB-231 cells was found to be 3080 nM.

Values taken from US20250179073A1, “TRICYCLIC HETEROCYCLE COMPOUNDS AS IAP ANTAGONISTS” (Ascentage Pharma (Suzhou) Co., Ltd., priority 2022, published 2025).
